# From the NIST ThermoML archive (doi:10.1016/j.jct.2006.05.008)
# ± gives the expanded uncertainty stated by the source.
# Experiment: molar heat capacity at constant pressure
# Conditions: 101.33 kPa, Small (less than 1 g) adiabatic calorimetry
smiles,measurement,setting,value
CCn1cc[n+](C)c1.[Br-] [1-ethyl-3-methylimidazolium bromide],molar heat capacity at constant pressure,"130 K, Crystal",114.2 ± 0.67 J/K/mol
same,molar heat capacity at constant pressure,"132.03 K, Crystal",115.39 ± 0.66 J/K/mol
same,molar heat capacity at constant pressure,"135.01 K, Crystal",116.87 ± 0.67 J/K/mol
same,molar heat capacity at constant pressure,"138 K, Crystal",118.34 ± 0.67 J/K/mol
same,molar heat capacity at constant pressure,"140 K, Crystal",119.1 ± 0.67 J/K/mol
same,molar heat capacity at constant pressure,"140.99 K, Crystal",119.85 ± 0.68 J/K/mol
same,molar heat capacity at constant pressure,"143.99 K, Crystal",121.33 ± 0.69 J/K/mol
same,molar heat capacity at constant pressure,"146.99 K, Crystal",122.81 ± 0.69 J/K/mol
same,molar heat capacity at constant pressure,"149.99 K, Crystal",124.27 ± 0.7 J/K/mol
same,molar heat capacity at constant pressure,"150 K, Crystal",124.1 ± 0.67 J/K/mol
same,molar heat capacity at constant pressure,"152.99 K, Crystal",125.74 ± 0.7 J/K/mol
same,molar heat capacity at constant pressure,"156 K, Crystal",127.17 ± 0.71 J/K/mol
same,molar heat capacity at constant pressure,"159 K, Crystal",128.63 ± 0.71 J/K/mol
same,molar heat capacity at constant pressure,"160 K, Crystal",128.9 ± 0.75 J/K/mol
same,molar heat capacity at constant pressure,"162.08 K, Crystal",130.18 ± 0.72 J/K/mol
same,molar heat capacity at constant pressure,"165.15 K, Crystal",131.64 ± 0.73 J/K/mol
same,molar heat capacity at constant pressure,"168.15 K, Crystal",133.08 ± 0.73 J/K/mol
same,molar heat capacity at constant pressure,"170 K, Crystal",133.7 ± 0.75 J/K/mol
same,molar heat capacity at constant pressure,"171.16 K, Crystal",134.55 ± 0.74 J/K/mol
same,molar heat capacity at constant pressure,"174.16 K, Crystal",136.01 ± 0.74 J/K/mol
same,molar heat capacity at constant pressure,"177.16 K, Crystal",137.5 ± 0.75 J/K/mol
same,molar heat capacity at constant pressure,"180 K, Crystal",138.6 ± 0.75 J/K/mol
same,molar heat capacity at constant pressure,"180.15 K, Crystal",138.89 ± 0.75 J/K/mol
same,molar heat capacity at constant pressure,"183.15 K, Crystal",140.38 ± 0.76 J/K/mol
same,molar heat capacity at constant pressure,"186.14 K, Crystal",141.85 ± 0.77 J/K/mol
same,molar heat capacity at constant pressure,"189.13 K, Crystal",143.32 ± 0.77 J/K/mol
same,molar heat capacity at constant pressure,"190 K, Crystal",143.6 ± 0.75 J/K/mol
same,molar heat capacity at constant pressure,"192.12 K, Crystal",144.81 ± 0.78 J/K/mol
same,molar heat capacity at constant pressure,"195.1 K, Crystal",146.31 ± 0.79 J/K/mol
same,molar heat capacity at constant pressure,"198.07 K, Crystal",147.84 ± 0.79 J/K/mol
same,molar heat capacity at constant pressure,"200 K, Crystal",148.7 ± 0.83 J/K/mol
same,molar heat capacity at constant pressure,"201.05 K, Crystal",149.45 ± 0.8 J/K/mol
same,molar heat capacity at constant pressure,"204.01 K, Crystal",151.13 ± 0.8 J/K/mol
same,molar heat capacity at constant pressure,"206.98 K, Crystal",152.7 ± 0.81 J/K/mol
same,molar heat capacity at constant pressure,"209.94 K, Crystal",154.27 ± 0.82 J/K/mol
same,molar heat capacity at constant pressure,"210 K, Crystal",153.9 ± 0.83 J/K/mol
same,molar heat capacity at constant pressure,"212.9 K, Crystal",155.83 ± 0.82 J/K/mol
same,molar heat capacity at constant pressure,"215.85 K, Crystal",157.4 ± 0.83 J/K/mol
same,molar heat capacity at constant pressure,"218.78 K, Crystal",158.98 ± 0.84 J/K/mol
same,molar heat capacity at constant pressure,"220 K, Crystal",159.2 ± 0.83 J/K/mol
same,molar heat capacity at constant pressure,"221.71 K, Crystal",160.52 ± 0.84 J/K/mol
same,molar heat capacity at constant pressure,"224.63 K, Crystal",162.13 ± 0.85 J/K/mol
same,molar heat capacity at constant pressure,"227.55 K, Crystal",163.72 ± 0.85 J/K/mol
same,molar heat capacity at constant pressure,"230 K, Crystal",164.7 ± 0.83 J/K/mol
same,molar heat capacity at constant pressure,"230.45 K, Crystal",165.37 ± 0.86 J/K/mol
same,molar heat capacity at constant pressure,"233.35 K, Crystal",166.97 ± 0.87 J/K/mol
same,molar heat capacity at constant pressure,"236.24 K, Crystal",168.5 ± 0.87 J/K/mol
same,molar heat capacity at constant pressure,"239.13 K, Crystal",170.14 ± 0.88 J/K/mol
same,molar heat capacity at constant pressure,"240 K, Crystal",170.4 ± 0.92 J/K/mol
same,molar heat capacity at constant pressure,"242 K, Crystal",171.88 ± 0.89 J/K/mol
same,molar heat capacity at constant pressure,"244.87 K, Crystal",173.49 ± 0.89 J/K/mol
same,molar heat capacity at constant pressure,"247.74 K, Crystal",175.15 ± 0.9 J/K/mol
same,molar heat capacity at constant pressure,"250 K, Crystal",176.2 ± 0.92 J/K/mol
same,molar heat capacity at constant pressure,"250.59 K, Crystal",176.83 ± 0.91 J/K/mol
same,molar heat capacity at constant pressure,"253.44 K, Crystal",178.51 ± 0.91 J/K/mol
same,molar heat capacity at constant pressure,"256.25 K, Crystal",180.2 ± 0.92 J/K/mol
same,molar heat capacity at constant pressure,"259.07 K, Crystal",181.98 ± 0.93 J/K/mol
same,molar heat capacity at constant pressure,"260 K, Crystal",182.2 ± 0.92 J/K/mol
same,molar heat capacity at constant pressure,"261.87 K, Crystal",183.73 ± 0.93 J/K/mol
same,molar heat capacity at constant pressure,"264.68 K, Crystal",185.47 ± 0.94 J/K/mol
same,molar heat capacity at constant pressure,"267.47 K, Crystal",187.2 ± 0.95 J/K/mol
same,molar heat capacity at constant pressure,"270 K, Crystal",188.3 ± 0.92 J/K/mol
same,molar heat capacity at constant pressure,"270.26 K, Crystal",188.95 ± 0.96 J/K/mol
same,molar heat capacity at constant pressure,"273.03 K, Crystal",190.7 ± 0.96 J/K/mol
same,molar heat capacity at constant pressure,"275.79 K, Crystal",192.52 ± 0.97 J/K/mol
same,molar heat capacity at constant pressure,"278.53 K, Crystal",194.49 ± 0.97 J/K/mol
same,molar heat capacity at constant pressure,"280 K, Crystal",195.1 ± 1 J/K/mol
same,molar heat capacity at constant pressure,"281.26 K, Crystal",196.34 ± 0.99 J/K/mol
same,molar heat capacity at constant pressure,"283.96 K, Crystal",198.2 ± 0.99 J/K/mol
same,molar heat capacity at constant pressure,"286.66 K, Crystal",199.93 ± 0.99 J/K/mol
same,molar heat capacity at constant pressure,"289.36 K, Crystal",201.96 ± 1 J/K/mol
same,molar heat capacity at constant pressure,"290 K, Crystal",202 ± 1 J/K/mol
same,molar heat capacity at constant pressure,"292.03 K, Crystal",203.78 ± 1 J/K/mol
same,molar heat capacity at constant pressure,"294.7 K, Crystal",205.78 ± 1 J/K/mol
same,molar heat capacity at constant pressure,"297.36 K, Crystal",207.81 ± 1 J/K/mol
same,molar heat capacity at constant pressure,"298.15 K, Crystal",207.5 ± 1 J/K/mol
same,molar heat capacity at constant pressure,"299.92 K, Crystal",209.77 ± 1 J/K/mol
same,molar heat capacity at constant pressure,"300 K, Crystal",208.8 ± 1 J/K/mol
same,molar heat capacity at constant pressure,"310 K, Crystal",215.7 ± 1.1 J/K/mol
same,molar heat capacity at constant pressure,"320 K, Crystal",222.5 ± 1.1 J/K/mol
same,molar heat capacity at constant pressure,"330 K, Crystal",229.4 ± 1.1 J/K/mol
same,molar heat capacity at constant pressure,"340 K, Crystal",236.3 ± 1.2 J/K/mol
same,molar heat capacity at constant pressure,"347.66 K, Liquid",265.34 ± 1.3 J/K/mol
same,molar heat capacity at constant pressure,"349.92 K, Crystal",243.1 ± 1.2 J/K/mol
same,molar heat capacity at constant pressure,"349.92 K, Liquid",264.8 ± 1.2 J/K/mol
same,molar heat capacity at constant pressure,"350 K, Liquid",264.8 ± 1.2 J/K/mol
same,molar heat capacity at constant pressure,"350.15 K, Liquid",266.1 ± 1.3 J/K/mol
same,molar heat capacity at constant pressure,"352.61 K, Liquid",266.89 ± 1.3 J/K/mol
same,molar heat capacity at constant pressure,"353.91 K, Liquid",267.52 ± 1.3 J/K/mol
same,molar heat capacity at constant pressure,"355.07 K, Liquid",267.71 ± 1.3 J/K/mol
same,molar heat capacity at constant pressure,"357.53 K, Liquid",268.53 ± 1.3 J/K/mol
same,molar heat capacity at constant pressure,"359.99 K, Liquid",269.33 ± 1.3 J/K/mol
same,molar heat capacity at constant pressure,"360 K, Liquid",268.6 ± 1.2 J/K/mol
same,molar heat capacity at constant pressure,"361.35 K, Liquid",270.21 ± 1.3 J/K/mol
same,molar heat capacity at constant pressure,"362.45 K, Liquid",270.78 ± 1.3 J/K/mol
same,molar heat capacity at constant pressure,"364.95 K, Liquid",271.95 ± 1.3 J/K/mol
same,molar heat capacity at constant pressure,"366.81 K, Liquid",270.88 ± 1.3 J/K/mol
same,molar heat capacity at constant pressure,"367.5 K, Liquid",272.58 ± 1.3 J/K/mol
same,molar heat capacity at constant pressure,"370 K, Liquid",272.4 ± 1.3 J/K/mol
